Laboratory results published in ChEMBL document CHEMBL1275486, “Kinetic characterization of VIM-7, a divergent member of the VIM metallo-beta-lactamase family” (Antimicrob Agents Chemother, 2008).

Assays:
[1] = tested on: Escherichia coli; test: Activity of Escherichia coli beta-lactamase VIM-1 by spectrophotometry
[2] = tested on: Escherichia coli; test: Ratio of Kcat to Km for Escherichia coli beta-lactamase VIM-1 by spectrophotometry

C[C@H]1[C@H](NC(=O)/C(=N\OC(C)(C)C(=O)O)c2csc(N)n2)C(=O)N1S(=O)(=O)O
Km [1]: > 1000 µM | kcat [1]: < 0.01 s⁻¹

C[C@]1(Cn2ccnn2)[C@H](C(=O)O)N2C(=O)C[C@H]2S1(=O)=O
Km [1]: 340 µM | kcat [1]: 5.3 s⁻¹ | kcat/Km [2]: 16000 M⁻¹ s⁻¹

O=C(Cc1cccs1)N[C@@H]1C(=O)N2C(C(=O)O)=C(/C=C/c3ccc([N+](=O)[O-])cc3[N+](=O)[O-])CS[C@H]12
Km [1]: 17 µM | kcat [1]: 95 s⁻¹ | kcat/Km [2]: 5.6e+06 M⁻¹ s⁻¹
